Active and inactive are the calls of the source. How the calls were made is not given here.
What follows are compounds tested on Fam108b (ABHD17B) [Mus musculus], recombinant soluble (assay: inhibition of soluble recombinant Fam108b, SAR follow-up, biochemical, gel-based ABPP, soluble form (AID 588589)). Details: fluorophosphonate probe, at 5 µM, stronger effect = higher value.

inhibition, inactive:
COc1ccc(-c2csc3nc(-c4ccccc4Br)oc(=O)c23)cc1 0%
COc1ccc(-c2csc3nc(-c4ccc(Cl)cc4)oc(=O)c23)cc1 0%
COc1cc2nc(-c3ccc(C(C)(C)C)cc3)oc(=O)c2cc1OC 0%
Cc1nsc2nc(-c3cccnc3Cl)oc(=O)c12 5%
COc1ccc(-c2csc3nc(-c4ccc(C)cc4)oc(=O)c23)cc1 0%
CC(C)(C)c1ccc(-c2nc3scc(-c4cccs4)c3c(=O)o2)cc1 0%
O=c1oc(-c2ccccc2)nc2c1oc1ccc(Cl)cc12 40%
CSc1ccc(Cl)c(-c2nc3snc(C)c3c(=O)o2)c1 10%
Cc1nsc2nc(-c3cc(Cl)nnc3Cl)oc(=O)c12 10%
O=c1oc(-c2cccc(Cl)c2)nc2scc(-c3ccc(Br)cc3)c12 0%
O=c1oc(-c2ccc(C(F)(F)F)cc2)nc2c1oc1ccc(Cl)cc12 40%
O=c1oc(-c2cc3ccccc3o2)nc2ccc(Br)cc12 0%
CCN(CC)S(=O)(=O)c1ccc(Cl)c(-c2nc3snc(C)c3c(=O)o2)c1 0%
Cc1nsc2nc(-c3ccc([N+](=O)[O-])cc3Cl)oc(=O)c12 10%
Cc1nsc2nc(-c3cc(S(=O)(=O)N(C)C)ccc3Cl)oc(=O)c12 10%
O=c1oc(-c2ccc(Br)cc2)nc2c1cnn2-c1ccccc1 0%
CCOc1cccc(-c2nc3ccc(OC(C)=O)cc3c(=O)o2)c1 5%
O=c1oc(-c2ccccc2F)nc2scc(-c3ccc(Br)cc3)c12 50%
O=c1oc(-c2ccc([N+](=O)[O-])cc2)nc2c1cnn2-c1ccccc1 0%
Cc1nsc2nc(-c3cc(S(=O)(=O)N(C)Cc4ccccc4)ccc3Cl)oc(=O)c12 30%
CCCc1nsc2nc(-c3ccccc3Cl)oc(=O)c12 15%
O=c1oc(-c2cccc(Cl)c2)nc2c1cnn2-c1ccccc1 20%
Cc1ccc(-c2csc3nc(-c4ccc(-c5ccccc5)cc4)oc(=O)c23)cc1 0%
Cc1ccc(-c2nc3scc(-c4ccc(Br)cc4)c3c(=O)o2)cc1 0%
O=C(Nc1cccc(-c2nc3ccccc3c(=O)o2)c1)c1ccccc1 50%
O=c1oc(-c2ccccc2Cl)nc2c1oc1ccccc12 40%
O=c1oc(-c2cccs2)nc2scc(-c3ccccc3)c12 55%
O=c1oc(-c2ccccn2)nc2ccccc12 45%
O=c1oc(/C=C/c2ccccc2)nc2scc(-c3cccs3)c12 10%
CC(C)(C)c1ccc(-c2nc3sc4c(c3c(=O)o2)CCCC4)cc1 0%
COCc1nsc2nc(-c3ccccc3Cl)oc(=O)c12 0%
S=c1sc(-c2ccccc2Cl)nc2ccccc12 35%
CCOc1ccc(-c2csc3nc(-c4ccccc4OC)oc(=O)c23)cc1 35%
O=c1oc(-c2cccc(Br)c2)nc2scc(-c3ccccc3)c12 5%
O=C1CCC(=O)N1c1ccc(-c2nc3scc(-c4cccs4)c3c(=O)o2)cc1 0%
CCOc1cc2nc(-c3ccccc3SC)oc(=O)c2cc1OCC 5%
COc1ccc(/C=C/c2nc3scc(-c4cccs4)c3c(=O)o2)cc1 0%
O=C1OC(=O)c2cc(-c3nc4ccccc4c(=O)o3)ccc21 0%
O=c1oc(-c2ccc(F)cc2)nc2scc(-c3ccc(Br)cc3)c12 0%
Cc1sc2nc(-c3ccc(-c4ccccc4)cc3)oc(=O)c2c1C 0%
O=c1oc(-c2ccc(Br)cc2)nc2scc(-c3cccs3)c12 0%
Cc1nsc2nc(-c3cc(S(C)(=O)=O)ccc3Cl)oc(=O)c12 5%
Cc1ccc(-c2csc3nc(-c4ccc(C(C)(C)C)cc4)oc(=O)c23)cc1 5%
O=c1oc(-c2cccs2)nc2cc(Cl)ccc12 40%
O=c1oc(COc2ccccc2Cl)nc2ccccc12 10%
O=c1oc(-c2ccco2)nc2cccc(F)c12 5%
Cc1nsc2nc(-c3cc(Cl)ccc3Cl)oc(=O)c12 15%
COc1ccc(-c2csc3nc(Cc4ccccc4)oc(=O)c23)cc1OC 5%
CC(C)(C)c1ccc(-c2nc3scc(-c4ccccc4)c3c(=O)o2)cc1 0%
CCc1nc2sc(-c3ccccc3)c(-c3ccccc3)c2c(=O)o1 55%
COc1cc(-c2nc3scc(-c4ccccc4)c3c(=O)o2)cc(OC)c1OC 0%
Cc1ccccc1-c1nc2scc(-c3ccc(Br)cc3)c2c(=O)o1 0%
Cc1ccc2nc(-c3ccccc3Cl)oc(=O)c2c1 15%
CCCOc1cccc(-c2nc3cc(OC)c(OC)cc3c(=O)o2)c1 10%
O=c1oc(-c2ccc(F)cc2)nc2scc(-c3cccs3)c12 0%
CCc1nsc2nc(-c3ccccc3Cl)oc(=O)c12 20%
Cc1nsc2nc(-c3ccc(Cl)cc3Cl)oc(=O)c12 20%
O=C1CCC(=O)N1c1ccc(-c2nc3scc(-c4ccc(F)cc4)c3c(=O)o2)cc1 0%
Cc1nsc2nc(-c3cc(F)c(F)cc3Cl)oc(=O)c12 15%
O=c1oc(-c2ccc(-c3ccccc3)cc2)nc2scc(-c3ccccc3)c12 0%
COc1cc2nc(-c3ccccc3SC)oc(=O)c2cc1OC 15%
Cc1ccccc1-c1nc2scc(-c3cccs3)c2c(=O)o1 15%
Cc1nsc2nc(-c3ccc(F)cc3Cl)oc(=O)c12 25%
CC(=O)Oc1ccc2nc(-c3ccccc3)oc(=O)c2c1 0%
CCOc1ccc(-c2csc3nc(-c4ccccc4C)oc(=O)c23)cc1 5%
COc1ccc(-c2csc3nc(-c4ccccc4C)oc(=O)c23)cc1 0%
COc1cc2nc(-c3c(OC)cccc3OC)oc(=O)c2cc1OC 0%
Cc1noc2nc(-c3ccccc3Cl)oc(=O)c12 5%
Cc1nc2c(oc3ccccc32)c(=O)o1 25%
Cc1nsc2nc(-c3cc([N+](=O)[O-])ccc3Cl)oc(=O)c12 15%
O=c1oc(Cc2ccccc2)nc2scc(-c3ccccc3)c12 45%
O=c1oc(-c2ccccc2)nc2c1oc1ccccc12 35%
O=c1oc(-c2ccco2)nc2c1cnn2-c1ccccc1 50%
Cc1ccc(-c2nc3sc(C)c(C)c3c(=O)o2)cc1 0%
CC(C)c1nsc2nc(-c3ccccc3Cl)oc(=O)c12 0%
CCOc1ccc(-c2csc3nc(-c4ccc(F)cc4)oc(=O)c23)cc1 0%
Cc1nsc2nc(-c3sc4ccccc4c3Cl)oc(=O)c12 20%
COc1ccc(-c2csc3nc(-c4cccc5ccccc45)oc(=O)c23)cc1OC 5%
Cc1nsc2nc(-c3cc(S(=O)(=O)N4CCCCC4)ccc3Cl)oc(=O)c12 15%
COc1ccc(-c2csc3nc(-c4ccc(F)cc4)oc(=O)c23)cc1 0%
Cc1nsc2nc(-c3cc(Br)cnc3Cl)oc(=O)c12 10%
Cc1nsc2nc(-c3ccccc3Cl)oc(=O)c12 0%
Cc1nsc2nc(-c3cc4ccccc4nc3Cl)oc(=O)c12 40%

inhibition, active:
O=c1oc(-c2cccc(F)c2)nc2c1cnn2-c1ccccc1 70%
CC(C)(C)c1nc2scc(-c3ccccc3)c2c(=O)o1 70%
O=C1CCC(=O)N1c1ccc(-c2nc3scc(-c4ccccc4)c3c(=O)o2)cc1 65%
O=c1oc(-c2ccccc2F)nc2scc(-c3cccs3)c12 80%
O=c1oc(-c2ccccc2)nc2c1cnn2-c1ccccc1 70%
O=c1oc(-c2cccs2)nc2c1cnn2-c1ccccc1 70%
O=c1oc(-c2ccccc2F)nc2c1cnn2-c1ccccc1 75%
Cc1nsc2nc(-c3cc(S(=O)(=O)N4CCCC4)ccc3Cl)oc(=O)c12 65%
O=c1oc(-c2ccccc2Cl)nc2c1cnn2-c1ccccc1 80%

Reference: PubChem BioAssay AID588589 (The Scripps Research Institute Molecular Screening Center, 2011)
